Test results published in patent US12629355B2, “Drug inhibitor against migration and invasion of cancer cells and methods of treating against metastasis of cancer cells” (HOWARD UNIVERSITY, priority 2019, dated 2026).

Experiments:
Assay type in all cases: cell-based
U251 cells [1] = experiment: Filipodia/lamellipodia development of TGF-induced cells on Matrigel, Giemsa stain (FIG. 2, FIG. 4)
Description: After incubation, media and matrigels were carefully removed and adherent cells were washed three times with 1×PBS; to visualize cells, cells were incubated with Giemsa Stain (Sigma-Aldrich) (1:20 with water) for 10 minutes, washed in water until no blue color rinsed out from the well images under a Zeiss Compound microscope.
It is shown in the FIG. 2 and FIG. 3 that 100 uM of SD 29-14 is effective in inhibiting the migration potential of the two different representative cancer cell lines, which establishes this drug as a candidate anti-metastasis drug for treating against cancers where a role of RACK1 upregulation is or has been shown in the metastasis process. There are many reviews on the RACK1 protein the cancer cell migration (e.g., Li and Xie, 2015; Duff and Long, 2017, among others).
(§1) Efficacy for inhibiting migration at a lower concentration of a representative compound was also investigated. Cancer cell lines were treated under conditions as used above for FIG. 2 and FIG. 3 but with both 10 μM and 100 μM SD29-14.

MCF-7 cells = experiment: Filipodia/lamellipodia development of TGF-induced cells on Matrigel, Giemsa stain (FIG. 3, FIG. 5)
Description: About 1×10^5 Breast cancer cells (MCF-7) treated with DMSO or SD29-14 for 48 h were resuspended in serum free MEM media and were then plated on 1:6 diluted (with serum free media) matrigel (Basement membrane mimic) in the presence of Transforming Growth Factor (TGFbeta) which is a known inducer of EMT that lead to the migration-(Lamouille and Derynck (2009)), with DMSO or with SD29-14 and the cells were allowed to grow for 20 h on Matrigel. After incubation, media and matrigels were carefully removed and adherent cells were washed three times with 1×PBS; to visualize cells, cells were incubated with Giemsa Stain (Sigma-Aldrich) (1:20 with water) for 10 minutes, washed in water until no blue color rinsed out from the well images under a Zeiss Compound microscope.
as §1
The experimental methods, except for the different cell line, are essentially same as stated above as to FIG. 4.

U251 cells [2] = experiment: Actin stress fiber development in lamellipodia (FIG. 6); conditions: U251 cells grown 72 h, versus DMSO
Text: Actin stress fibers are known to regulate the mesenchymal migrating cells by regulating the myosin-based contractility to achieve directional cell migration (Vallenius 2013). […] As these stress fibers are needed for other cellular functions required for directional movement, a lack of a visible stress fibers should inhibit cells treated with a representative compound (SD 29-14) from acquiring necessary traction generation to migrate. Actin stress fiber development has been reported to be needed to generate traction forces, establishment of the front-to-back polarity axis, retraction of the trailing edge, and extracellular matrix remodeling-development that collectively regulates the directional movement of migrating cell (Vallenius 2013). The cells were grown 72 h at conditions described for the cells imaged in FIG. 4 and were photographed under a Zeiss brand compound microscope at 40× magnification.

FAK = experiment: Localization of FAK, immunofluorescence (FIG. 13); conditions: versus DMSO+TGF (5 ng/ml) control
Description: FIG. 13 presents in photomicrographs a comparison between an illustrative cancer in which the treatment involved using DMSO+TGF (5 ng/ml) as a control and the illustrative cancer cell in which the in vitro treatment involved using a compound according to a formulae (1), (2) or (3) herein+TGF (5 ng/ml). The block of four photomicrographs on the left is for the control. […] Inability to co-localize would inhibit the downstream modifications of FAK reported as needed for migration.
As to FIGS. 12 and 13, cells were grown to almost 80% confluency and then serum starved for 24 hours. Then treated with the representative compound SD 29-14 for additional 24 h. No TGFbeta1 was used in this assay. After 24 h, cells were prepared for the immunofluorescence imaging essentially with the same procedure as described for FIG. 9. The antibody for the FAK was purchased from GeneTex (Irvine, CA). The secondary was rabbit TRITC. The primary RACK1 antibody coupled with a FITC reporter was purchased from Santa Cruz Biotechnology (Dallas, TX).

pY397-FAK = pY397-FAK expression, immunofluorescence (FIG. 15); conditions: U251 cells, 96 h, 5 ng/ml TGF-beta
Text: As to FIGS. 14 and 15, in order to evaluate the effect of a representative compound (SD 29-14) as a drug for inducing functional inactivation of RACK1 on the FAK phosphorylation, the drug was used in testing with breast cancer cells (MCF7, FIG. 14) and with glioblastoma cancer cells (U251, FIG. 15). In this immunofluorescence experiment, the pY397-FAK expressing cells were stained with FITC tagged secondary antibody (green) and RACK1 was stained with TRITC tagged secondary antibody (red). Here 5 ng/ml TGFbeta was used to induce cell migration. […] As discussed above, without the pY397-FAK present, the connection between the ECM and cell interiors will be disrupted which will inhibit the cell's potential to migrate by initiating the cell's adhesion to the ECM.
As to FIGS. 14 and 15, and the methods, the immunofluorescence experiments are essentially same as described with reference to FIG. 9 with a slight modification in the duration of the drug treatment. The cancer cells (MCF7 or U251) were incubated with a drug (SD 29-14) or with DMSO (left panel) for 96 h in the presence of 5 ng/ml TGF-beta. After indicated incubation period, the cells were fixed and stained with antibody as described for FIG. 9 methods.

U251 cells [3] = experiment: F-actin foci and pY397-FAK organization, immunofluorescence (FIG. 20); conditions: 96 h, 2 ng/ml TGF-beta1
Text: Cell cytoskeleton plays a significant role during the migration and invasion of cancer cells. Changes in the cytoskeleton accompanies the cell shape changes and which subsequently changes the dynamic actin polymerization and depolymerization process. The attachment of cells to the substrate is integrin dependent and as such it was postulated that the RACK1 dependent migration will also regulate the cytoskeleton changes. In this regard, F-actin foci helps stress fiber based directional filipodia development. To visualize F-actin, we used […] that labels the F-actins. FAK located at focal contact which is actin based anchoring junction that links the cells with the ECM and mostly used by motile cells like the metastatic cancer cells. FAK is known as the key regulator of the F-actin dynamics (Li et al., 2013). (Li S Y, et al., Focal adhesion kinase is a regulator of F-actin dynamics: New insights from studies in the testis, Spermatogenesis, 3 (3): e25385 (2013).
The presence of pY397-FAK can be seen in a linear organized way within the migratory structures but such organized presence of the pY397-FAK was not seen in the presence of the representative compound (SD29-14).
As to FIG. 20, and methods, U251 cells were grown on glass coverslip for 96 h in the presence or absence of SD29-14 containing MEM media with 2 ng/ml TGF-beta1 growth factor. […]

[4] = Toxicity judged from DAPI treated cell nucleus in immunofluorescence experiments; conditions: 100 μM
Description: However, 100 μM might be a high concentration or dosing and may be higher than physiologically potent concentration.

Structure (SMILES): Nn1c(S)nnc1-c1cc(Cl)cc(Cl)c1 [SD 29-14]
- efficacy to inhibit filipodia and lamellipodia development (U251 cells [1]; 10 μM, 72 h grown (FIG. 4)): maintained
- filipodia and lamellipodia development (U251 cells [1]; 100 uM, TGF on Matrigel, 48 h treated then 20 h on Matrigel): inhibition of the filipodia and lamellipodia development
- efficacy to inhibit filipodia and lamellipodia development (MCF-7 cells; 10 μM, 72 h grown (FIG. 5)): maintained
- filipodia and lamellipodia development (MCF-7 cells; 100 uM, TGF-beta on Matrigel, 48 h treated then 20 h on Matrigel): the development of both filipodia and lamellipodia was inhibited
- actin stress fiber development in lamellipodia (U251 cells [2]): no visible stress fiber like radiating structures were visible
- localization of FAK (FAK): blocks localization of FAK
- expression of pY397-FAK at the cell protrusions (pY397-FAK): almost completely inhibited
- number and intensity of F-actin foci (U251 cells [3]): reduced the number and intensity of the F-actin foci
- toxicity to cells (uniform DAPI treated cell nucleus, drug treated vs non-treated) [4]: not exposed to a toxic amount
